{"source": "patent US10265303B2", "about": "“Hyperphenylalaninemia and treatments thereof” (BERGEN TEKNOLOGIOVERFØRING AS, priority 2015, dated 2019)", "assay_type_in_all_cases": "cell-based", "key": {"human wild-type PAH": {"target": "T1, human wild-type PAH (Homo sapiens, UniProt P00439)", "T1 construct": "expressed in transfected cells", "T1 sequence (P00439 1-452)": "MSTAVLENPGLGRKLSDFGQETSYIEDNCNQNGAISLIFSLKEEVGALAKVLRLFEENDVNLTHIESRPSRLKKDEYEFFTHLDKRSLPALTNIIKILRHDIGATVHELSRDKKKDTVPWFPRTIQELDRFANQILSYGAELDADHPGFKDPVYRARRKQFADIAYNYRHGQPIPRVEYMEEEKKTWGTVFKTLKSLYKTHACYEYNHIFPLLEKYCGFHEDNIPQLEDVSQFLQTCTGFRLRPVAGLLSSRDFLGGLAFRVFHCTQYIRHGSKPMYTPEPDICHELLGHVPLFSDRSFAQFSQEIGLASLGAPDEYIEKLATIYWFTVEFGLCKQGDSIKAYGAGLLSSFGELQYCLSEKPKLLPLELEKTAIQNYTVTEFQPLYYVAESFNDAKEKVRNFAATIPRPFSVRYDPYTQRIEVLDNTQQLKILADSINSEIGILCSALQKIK", "assay": "PAH immunoreactive protein level (Western blot) in HEK293 cells permanently expressing human wild-type PAH", "details": "0.04 mg/ml (average 116.7 μM), 1% DMSO, 8 h", "procedure": "Human embryonic kidney cells (HEK293; Life Technologies™) permanently expressing WT-hPAH, prepared with the Flp-In system (Life Technologies™) were kindly provided by Per Knappskog, Haukeland University Hospital. About 1 million cells were grown in DMEM medium containing 4.5 g/l glucose, 10% (v/v) fetal calf serum, 0.25 mg/ml gentamycine, 2 mM L-glutamine and 50 μg/ml hygromycin B, and after 24 h medium was changed and the test compounds were added at a concentration of 0.02 mg/ml (1% DMSO). Eight hours later, the cells were harvested, and the pellets frozen in dry ice and stored at −80° C. […] To prepare the cell extracts, the frozen cell pellets were thawed in TBS (+protease inhibitor) buffer and cells were homogenized with 0.1% TX-100, incubated 15 minutes at 4° C. and extracts were clarified by centrifugation 20000 g for 15 min at 4° C. Protein concentrations were normalized using a Direct Detect Spectrometer (Merck Millipore).\nThe 7 selected compounds as well as the first generation pharmacological chaperones (Compounds III and IV) were further analyzed in the presence and absence of BH2 (200 μM), added as precursor of BH4, to account for additive effects. A higher concentration of compound was also used 0.04 mg/ml (average of 116.7 μM) at otherwise same experimental conditions."}, "R261Q-PAH": {"target": "T2, R261Q-PAH (Homo sapiens, UniProt P00439, R261Q)", "T2 construct": "expressed in transfected cells; host or cells: HEK293 EBNA, transient, pcDNA3-PAH", "T2 sequence (P00439 1-452 R261Q)": "T1 sequence (P00439 1-452) with R261Q", "assay": "PAH protein level and activity in HEK293 EBNA cells transiently expressing PKU mutant R261Q", "details": "24 h", "procedure": "(§1) Cell lysates were prepared as indicated above."}, "I65T-PAH": {"target": "T3, I65T-PAH (Homo sapiens, UniProt P00439, I65T)", "T3 construct": "expressed in transfected cells; host or cells: HEK293 EBNA, transient, pcDNA3-PAH", "T3 sequence (P00439 1-452 I65T)": "T1 sequence (P00439 1-452) with I65T", "assay": "PAH protein level and activity in HEK293 EBNA cells transiently expressing PKU mutant I65T", "details": "24 h", "procedure": "as §1"}}, "note": "Numbering of substitutions follows the chain as printed.", "data": [{"smiles": "COc1cc(Cc2cnc(N)nc2N)cc(OC)c1OC", "note": "[c53, trimethoprim]", "values": [{"measurement": "effect on PAH protein (FIG. 1A)", "setting": "human wild-type PAH", "value": "very large stimulating effect"}, {"measurement": "protein and activity, mutant R261Q, Compound 53 and BH2 together", "setting": "R261Q-PAH; 200 μM each", "value": "trends for additive effects"}, {"measurement": "PAH activity, mutant R261Q", "setting": "R261Q-PAH; 200 μM, 1% DMSO", "value": "greatly increased"}, {"measurement": "hPAH protein level, mutant R261Q", "setting": "R261Q-PAH; 200 μM, 1% DMSO", "value": "greatly increased"}, {"measurement": "protein and activity, mutant I65T, Compound 53 and BH2 together", "setting": "I65T-PAH; 200 μM each", "value": "trends for additive effects"}, {"measurement": "PAH activity, mutant I65T", "setting": "I65T-PAH; 200 μM, 1% DMSO", "value": "greatly increased"}, {"measurement": "hPAH protein level, mutant I65T", "setting": "I65T-PAH; 200 μM, 1% DMSO", "value": "greatly increased"}]}]}
